Structures can show the parent of a compound that is named as a salt. Where two headings read alike, the source gives them in different places.
Columns and labels:
sigma2 receptor [1] = target: T1, sigma2 receptor (Mus musculus, UniProt Q8VD00); assay: Sigma2 receptor competition binding against [3H]DTG /; details: for Sigma2 nH (pseudo-Hill slope): 3.0 nM [3H]DTG / 500 nM (+)-pentazocine, 60 min, 25 °C; for Selectivity Ki Ratio σ2/σ1: sigma2 Ki / sigma1 Ki
T1 sequence (Q8VD00 1-176): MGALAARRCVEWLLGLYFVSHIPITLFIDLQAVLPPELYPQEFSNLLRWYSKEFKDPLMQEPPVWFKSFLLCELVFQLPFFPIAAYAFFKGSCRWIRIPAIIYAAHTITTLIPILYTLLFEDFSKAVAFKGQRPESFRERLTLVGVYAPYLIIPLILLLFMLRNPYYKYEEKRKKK

sigma1 receptor [2] = target: T2, sigma1 receptor (Mus musculus, UniProt O55242); details: for Sigma1 nH (pseudo-Hill slope): 1.0 nM [3H](+)-pentazocine, 6 h, 37 °C
T2 sequence (O55242 whole entry): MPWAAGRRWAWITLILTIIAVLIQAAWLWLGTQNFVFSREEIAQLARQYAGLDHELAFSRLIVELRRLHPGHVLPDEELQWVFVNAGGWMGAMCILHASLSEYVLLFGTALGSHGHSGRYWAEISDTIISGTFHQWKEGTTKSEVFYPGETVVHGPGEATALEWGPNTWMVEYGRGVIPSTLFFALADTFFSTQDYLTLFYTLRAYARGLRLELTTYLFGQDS

sigma1 receptor [3] = target: T2, sigma1 receptor; assay: biochemical
sigma1 receptor [4] = target: T2, sigma1 receptor; type: in vivo; details: for ED50: mouse, ip
sigma2 receptor [5] = assay: [3H]DTG association kinetics and homologous; type: binding, mouse; details: 25 °C; 3.0 nM; 500 nM (+)-pentazocine

Compound | Sigma2 nH (pseudo-Hill slope) (sigma2 receptor [1]; mouse lung membranes) | Selectivity Ki Ratio σ2/σ1 (sigma2 receptor [1]; mouse lung membranes) | Sigma1 nH (pseudo-Hill slope) (sigma1 receptor [2]; mouse lung membranes) | Ki (sigma1 receptor [3]) | also measured
(−)-cocaine hydrochloride | 0.93 ± 0.09 |  |  |  | 
C=CCN1CCC2(C)c3cc(O)ccc3CC1C2C (single isomer, unassigned; (-)) [(−)-NANM, (−)-N-allylnormetazocine] | 0.85 ± 0.09 | 2.0 | 1.48 ± 0.28 |  | 
CC(C(O)c1ccc(O)cc1)N1CCC(Cc2ccccc2)CC1 (stereo not drawn) [Ifenprodil, ifenprodil (+)-tartrate] | 0.88 ± 0.10 | 0.1 | 1.06 ± 0.11 | 16.4 ± 1.89 nM | IC50 (sigma2 receptor [1]): 2.4 ± 0.27 nM; Ki (sigma2 receptor [1]): 2.18 ± 0.24 nM
COc1ccc2c(c1)[C@]13CCCC[C@@H]1[C@H](C2)N(C)CC3 [Dextromethorphan, dextromethorphan hydrobromide] | 1.22 ± 0.12 | 58 | 0.86 ± 0.12 | 71.7 ± 6.56 nM | IC50 (sigma2 receptor [1]): 4510 ± 714 nM; Ki (sigma2 receptor [1]): 4200 ± 664 nM; sigma1 receptor occupancy across tissues at higher doses (sigma1 receptor [4]; 31.6 – 100 µmol / kg (12 – 37 mg / kg)): fully occupied; ED50 (sigma1 receptor [4]; read-out: ED50, inhibition of specific radioligand binding in heart): 1.2 µmol/kg; ED50 (sigma1 receptor [4]; read-out: ED50, inhibition of specific radioligand binding in lung): 1.2 µmol/kg; ED50 (sigma1 receptor [4]; read-out: ED50, inhibition of specific radioligand binding in spleen): 3.5 µmol/kg; ED50 (sigma1 receptor [4]; read-out: ED50 values, range across lung, heart, spleen and brain): 1.1 to 4.4 µmol/kg; ED50 (sigma1 receptor [4]; read-out: ED50 values, range across tissues): 0.4 to 1.6 mg/kg; ED50 (sigma1 receptor [4]; read-out: lung ED50): 0.4 mg/kg; Hill slope in the presence of phenytoin (sigma1 receptor [2]; phenytoin 1.0 mM in NaOH vehicle, mouse lung membranes): 1.2 ± 0.2; shift to higher apparent sigma1 affinity caused by phenytoin (sigma1 receptor [2]; phenytoin 1.0 mM, mouse lung membranes): 5 fold; Hill slope with vehicle only (sigma1 receptor [2]; vehicle only (50 µL, 0.15 M NaOH), mouse lung membranes): 1.3 ± 0.2
Cc1ccccc1NC(=N)Nc1ccccc1C [DTG, 1,3-di(2-tolyl)guanidine] | 0.90 ± 0.16 |  | 1.21 ± 0.09 | 75.2 ± 8.01 nM | 
Cc1ccc2c(c1)C1CN(C)CCC1N2C(=O)CSc1nnnn1-c1ccc(Cl)cc1 (stereo not drawn) [AG-205, Z-2-[[1-(4-chlorophenyl)-1H-tetrazol-5-yl]thio]-1-(1,2,3,4,4a,9b-hexahydro-2,8-dimethyl-5H-pyrido[4,3-b]indol-5-yl)ethanone] | 1.06 ± 0.20 | 0.07 | 1.11 ± 0.12 |  | higher apparent affinity for sigma2 sites over sigma1 sites (sigma2 receptor [1]; mouse lung membranes, from Ki values): 14 fold; residual specific [3H](+)-pentazocine binding at highest concentration (sigma1 receptor [2]; 0.02 M, the highest concentration used): approximately 10%
Cc1ccccc1NC(=N)Nc1ccccc1C [[^3H]DTG, [^3H]1,3-di(2-tolyl)guanidine] |  |  |  |  | time to steady state of specific binding (sigma2 receptor [5]): ≤ 2 min
C=CCN1CCC2(C)c3cc(O)ccc3CC1C2C (single isomer, unassigned; (+)) [(+)-NANM, (+)-N-allylnormetazocine] | 1.63 ± 0.35 | 1162 | 1.04 ± 0.10 |  | 
COc1ccc(CCN2CCN(C/C=C/I)CC2)cc1OC [[^125I]E-IA-DM-PE-PIPZE, E-N-1-(3´-iodoallyl)-N´-4-(3´´,4´´-dimethoxyphenethyl)-piperazine] |  |  |  |  | specific binding in vivo in brain (sigma1 receptor [4]; mouse brain, non-specific defined by BD1063): 85%; specific binding in vivo in heart (sigma1 receptor [4]; mouse heart, non-specific defined by BD1063): 50%; specific binding in vivo in lung (sigma1 receptor [4]; mouse lung, non-specific defined by BD1063 5.0 µmol / kg i.v.): 68%; specific binding in vivo in spleen (sigma1 receptor [4]; mouse spleen, non-specific defined by BD1063): 66%

— paper PMC4543428 (European journal of pharmacology, 2015)
